# Laboratory results: US11000033B2, “Ketone or oxime compound, and herbicide” (NISSAN CHEMICAL CORPORATION, priority 2014, dated 2021)
# Legend:
# Assay type in all cases: in vivo
# [1] = tested on: Scirpus juncoides; test: Test Example 1: herbicidal activity, application before weed generation in submerged conditions (symbol B)
# Procedure, shortened: (§1)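 Flooded alluvial soil (4 cm water) was mixed-sown with the three weed species, and 2.5-leaf rice seedlings were transplanted. On sowing day, a water-diluted emulsion at a predetermined rate was applied to the water surface. After 3 weeks in a 25–30 °C greenhouse, effect was scored 0–5.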
# [2] = tested on: Setaria viridis; test: Test Example 5: herbicidal effect by foliage application, plastic box (symbol G); details: 3 weeks after application
# Procedure, shortened: (§2)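 Effect is rated 3 weeks after a foliar spray of water-diluted emulsion concentrate at a predetermined herbicide amount. Plants had grown 14 days in a 25° C. to 30° C. greenhouse from seed in sterilized diluvial soil.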
# [3] = tested on: rapeseed; test: Test Example 5: effect on crop by foliage application, plastic box (symbol g); details: 3 weeks after application
# Procedure, shortened: (§3)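 A greenhouse held between 25° C. and 30° C. was used to grow plants sown spot-wise, beneath ~1.5 cm of soil, in boxes of sterilized diluvial soil.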
# [4] = tested on: Amaranthus retroflexus; test: Test Example 4: herbicidal effect by soil treatment (symbol N)
# Excerpt: (§4) Herbicidal Effect Test by Soil Treatment
# Sterilized diluvial soil was placed in a plastic box having a length of 21 cm, a width of 13 cm, and a depth of 7 cm. Each of the seeds of Digitaria ciliaris, Setaria viridis, Echinochloa crus-galli var. crus-galli, Avena fatua, Alopecurus myosuroides, Lolium multiflorum Lam., Apera spica-venti, Abutilon theophrasti, Amaranthus retroflexus, Chenopodium album, Stellaria media, Galium spurium, Veronica persica, corn, soybean, rice, wheat, beet, and rapeseed was sowed in a spot-like manner and was covered with the soil of a thickness of about 1.5 cm. Subsequently, the emulsion agent of the compound present invention prepared in accordance with Formulation Example 2 was diluted with water so as to be a predetermined herbicide amount and the diluted emulsion agent was uniformly applied to the surface of the soil with a small-size spray. The plastic box was placed in a greenhouse of 25° C. to 30° C. to grow plant. 3 weeks later from the herbicide application, the effect to each plant was investigated in accordance with the criteria of Test Example 1.
# [5] = tested on: Lolium multiflorum Lam.; test: Test Example 5: herbicidal effect by foliage application, plastic box (symbol K); details: 3 weeks after application
# Procedure, shortened: as §2
# [6] = tested on: Apera spica-venti; test: Test Example 5: herbicidal effect by foliage application, plastic box (symbol L); details: 3 weeks after application
# Procedure, shortened: as §2
# [7] = tested on: Cyperus difformis; test: Test Example 3: herbicidal effect by foliage application, Wagner pot (symbol E); details: for E herbicidal effect grade: Table 24
# Procedure, shortened: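 Seeds sown in alluvial soil kept under 0.1–0.5 cm water, greenhouse 25–30 °C; 14 d growth. Leaves treated by small sprayer with water-diluted emulsion at a predetermined rate. Effect graded by set scale, 3 weeks.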
# [8] = tested on: corn; test: Test Example 4: effect on crop by soil treatment (symbol c)
# Excerpt: as §4
# (§5) Sterilized diluvial soil was placed in a plastic box having a length of 21 cm, a width of 13 cm, and a depth of 7 cm. Each of the seeds of Digitaria ciliaris, Setaria viridis, Echinochloa crus-galli var. crus-galli, Avena fatua, Alopecurus myosuroides, Lolium multiflorum Lam., Apera spica-venti, Abutilon theophrasti, Amaranthus retroflexus, Chenopodium album, Stellaria media, Galium spurium, Veronica persica, corn, soybean, rice, wheat, beet, and rapeseed was sowed in a spot-like manner and was covered with the soil of a thickness of about 1.5 cm. […] The plastic box was placed in a greenhouse of 25° C. to 30° C. to grow plant.
# [9] = tested on: Monochoria vaginalis; test: Test Example 1: herbicidal activity, application before weed generation in submerged conditions (symbol C)
# Procedure, shortened: as §1
# [10] = tested on: rapeseed; test: Test Example 4: effect on crop by soil treatment (symbol g)
# Excerpt: as §4, §5
# [11] = tested on: beet; test: Test Example 4: effect on crop by soil treatment (symbol f)
# Excerpt: as §4, §5
# [12] = tested on: wheat; test: Test Example 5: effect on crop by foliage application, plastic box (symbol e); details: 3 weeks after application
# Procedure, shortened: as §3
# [13] = tested on: beet; test: Test Example 5: effect on crop by foliage application, plastic box (symbol f); details: 3 weeks after application
# Procedure, shortened: as §3
# [14] = application herbicide amount 320 g/ha
# [15] = application herbicide amount 192 g/ha
SMILES,"B (Scirpus juncoides) herbicidal effect grade [1, 14]","G: Setaria viridis, herbicidal effect grade ([2]; 320 g/ha)","g: rapeseed, effect on crop grade ([3]; 320 g/ha)","Herbicidal effect grade, N: Amaranthus retroflexus [4, 14]","K: Lolium multiflorum Lam., herbicidal effect grade ([5]; 320 g/ha)","L: Apera spica-venti, herbicidal effect grade ([6]; 320 g/ha)","E herbicidal effect grade [7, 14]","Effect on crop grade, c: corn [8, 14]","C (Monochoria vaginalis) herbicidal effect grade [9, 14]","Effect on crop grade, g: rapeseed [10, 14]","Effect on crop grade, f: beet [11, 14]","e: wheat, effect on crop grade ([12]; 320 g/ha)","f: beet, effect on crop grade ([13]; 320 g/ha)",further results
COC(=O)C(C(=O)C1CC1)C1CC(O)=C(c2c(C)cc(Br)cc2C)C1=O (mixture of isomers) [10-002],0 (Herbicidal ratio of 5% or lower (almost no effect)),5 (Herbicidal ratio of 90% or more (almost completely withered)),0 (Herbicidal ratio of 5% or lower (almost no effect)),0 (Herbicidal ratio of 5% or lower (almost no effect)),5 (Herbicidal ratio of 90% or more (almost completely withered)),4 (Herbicidal ratio of 70% or higher and lower than 90%),3 (Herbicidal ratio of 40% or higher and lower than 70%),0 (Herbicidal ratio of 5% or lower (almost no effect)),0 (Herbicidal ratio of 5% or lower (almost no effect)),0 (Herbicidal ratio of 5% or lower (almost no effect)),0 (Herbicidal ratio of 5% or lower (almost no effect)),0 (Herbicidal ratio of 5% or lower (almost no effect)),0 (Herbicidal ratio of 5% or lower (almost no effect)),–
CON=C(CC1CC(OC(=O)C(C)(C)C)=C(c2c(C)cc(C)cc2OC)C1=O)C1CC1 (mixture of isomers) [13-006],5 (Herbicidal ratio of 90% or more (almost completely withered)),5 (Herbicidal ratio of 90% or more (almost completely withered)),4 (Herbicidal ratio of 70% or higher and lower than 90%),–,5 (Herbicidal ratio of 90% or more (almost completely withered)),5 (Herbicidal ratio of 90% or more (almost completely withered)),5 (Herbicidal ratio of 90% or more (almost completely withered)),–,4 (Herbicidal ratio of 70% or higher and lower than 90%),–,–,5 (Herbicidal ratio of 90% or more (almost completely withered)),3 (Herbicidal ratio of 40% or higher and lower than 70%),"N: Amaranthus retroflexus, herbicidal effect grade [4, 14]: 0 (Herbicidal ratio of 5% or lower (almost no effect)); c: corn, effect on crop grade [8, 14]: 1 (Herbicidal ratio of 5% or higher and lower than 20%); g: rapeseed, effect on crop grade [10, 14]: 3 (Herbicidal ratio of 40% or higher and lower than 70%); f: beet, effect on crop grade [11, 14]: 0 (Herbicidal ratio of 5% or lower (almost no effect))"
Cc1cc(Br)cc(C)c1C1=C(O)CC(CC(=O)C2CC2)C1=O (racemic) [10-004],0 (Herbicidal ratio of 5% or lower (almost no effect)),5 (Herbicidal ratio of 90% or more (almost completely withered)),4 (Herbicidal ratio of 70% or higher and lower than 90%),0 (Herbicidal ratio of 5% or lower (almost no effect)),5 (Herbicidal ratio of 90% or more (almost completely withered)),5 (Herbicidal ratio of 90% or more (almost completely withered)),5 (Herbicidal ratio of 90% or more (almost completely withered)),5 (Herbicidal ratio of 90% or more (almost completely withered)),0 (Herbicidal ratio of 5% or lower (almost no effect)),0 (Herbicidal ratio of 5% or lower (almost no effect)),0 (Herbicidal ratio of 5% or lower (almost no effect)),4 (Herbicidal ratio of 70% or higher and lower than 90%),0 (Herbicidal ratio of 5% or lower (almost no effect)),–
CON=C(C)CC1CC(OC(=O)C2CCCO2)=C(c2c(C)cc(C)cc2C)C1=O (centres unmarked) [1-076],–,–,–,–,–,–,–,–,–,–,–,–,–,"Herbicidal effect grade, B: Scirpus juncoides [1, 15]: 4 (Herbicidal ratio of 70% or higher and lower than 90%); G: Setaria viridis, herbicidal effect (criteria 0-5) ([2]; 192 g/ha): 5 (Herbicidal ratio of 90% or more (almost completely withered)); g: rapeseed, effect on crop (criteria 0-5) ([3]; 192 g/ha): 4 (Herbicidal ratio of 70% or higher and lower than 90%); N: Amaranthus retroflexus, herbicidal effect grade ([4]; 192 g/ha): 4 (Herbicidal ratio of 70% or higher and lower than 90%); K: Lolium multiflorum Lam., herbicidal effect (criteria 0-5) ([5]; 192 g/ha): 5 (Herbicidal ratio of 90% or more (almost completely withered)); L: Apera spica-venti, herbicidal effect (criteria 0-5) ([6]; 192 g/ha): 5 (Herbicidal ratio of 90% or more (almost completely withered)); herbicidal effect on E, grade 0-5 [7, 15]: 5 (Herbicidal ratio of 90% or more (almost completely withered)); c: corn, effect grade on crop ([8]; 192 g/ha): 2 (Herbicidal ratio of 20% or higher and lower than 40%); Herbicidal effect grade, C: Monochoria vaginalis [9, 15]: 0 (Herbicidal ratio of 5% or lower (almost no effect)); g: rapeseed, effect grade on crop ([10]; 192 g/ha): 4 (Herbicidal ratio of 70% or higher and lower than 90%); f: beet, effect grade on crop ([11]; 192 g/ha): 0 (Herbicidal ratio of 5% or lower (almost no effect)); e: wheat, effect on crop (criteria 0-5) ([12]; 192 g/ha): 5 (Herbicidal ratio of 90% or more (almost completely withered)); f: beet, effect on crop (criteria 0-5) ([13]; 192 g/ha): 0 (Herbicidal ratio of 5% or lower (almost no effect))"
CON=C(C)CC1CC(OC(=O)C#C[Si](C)(C)C)=C(c2c(C)cc(C)cc2C)C1=O (centres unmarked) [1-096],–,–,–,–,–,–,–,–,–,–,–,–,–,"Herbicidal effect grade, B: Scirpus juncoides [1, 14]: 5 (Herbicidal ratio of 90% or more (almost completely withered)); G: Setaria viridis, herbicidal effect (criteria 0-5) ([2]; 320 g/ha): 5 (Herbicidal ratio of 90% or more (almost completely withered)); g: rapeseed, effect on crop (criteria 0-5) ([3]; 320 g/ha): 4 (Herbicidal ratio of 70% or higher and lower than 90%); N: Amaranthus retroflexus, herbicidal effect grade ([4]; 320 g/ha): 4 (Herbicidal ratio of 70% or higher and lower than 90%); K: Lolium multiflorum Lam., herbicidal effect (criteria 0-5) ([5]; 320 g/ha): 5 (Herbicidal ratio of 90% or more (almost completely withered)); L: Apera spica-venti, herbicidal effect (criteria 0-5) ([6]; 320 g/ha): 5 (Herbicidal ratio of 90% or more (almost completely withered)); herbicidal effect on E, grade 0-5 [7, 14]: 5 (Herbicidal ratio of 90% or more (almost completely withered)); c: corn, effect grade on crop ([8]; 320 g/ha): 4 (Herbicidal ratio of 70% or higher and lower than 90%); Herbicidal effect grade, C: Monochoria vaginalis [9, 14]: 0 (Herbicidal ratio of 5% or lower (almost no effect)); g: rapeseed, effect grade on crop ([10]; 320 g/ha): 3 (Herbicidal ratio of 40% or higher and lower than 70%); f: beet, effect grade on crop ([11]; 320 g/ha): 0 (Herbicidal ratio of 5% or lower (almost no effect)); e: wheat, effect on crop (criteria 0-5) ([12]; 320 g/ha): 5 (Herbicidal ratio of 90% or more (almost completely withered)); f: beet, effect on crop (criteria 0-5) ([13]; 320 g/ha): 0 (Herbicidal ratio of 5% or lower (almost no effect))"
